# Test results as given in patent US6706289B2, “Methods and compositions for enhanced delivery of bioactive molecules” (priority 2000, dated 2004).
# Read-outs that look alike come from different tables or passages of the source.
# Experiments:
# [1] = Mean particle size of microparticles estimated from SEM; assay type: physicochemical
# [2] = assay type: physicochemical
# Experimental: (§1) Core loading measurement of the microspheres was done by dissolving 10 mg of microspheres in 50% acetonitrile followed by centrifugation to pellet the insoluble polymer. Aliquots were analyzed by RP-HPLC and compared to representative standards prepared in 50% acetonitrile. […] The suspensions were vortexed and incubated at 37° C. After 1 hour, aliquots were removed, filtered and analyzed for the amount released by RP-HPLC.
# normal rats = assay: Hypoglycemic effect: blood glucose levels after subcutaneous administration; assay type: in vivo
# Experimental: PEG-Insulin PLGA microspheres and an equivalent dose of free insulin were administered subcutaneously to normal rats. Blood was drawn periodically and anticoagulated. Blood glucose levels were measured by standard tests.
# [3] = Initial release at 1 h, in vitro dissolution of microparticles; assay type: physicochemical; settings: Monophase microparticles; PBS (50 mM, pH 7.2), 0.02% Tween 20, 25% EtOH, 37° C.
# Experimental: as §1
# [4] = Double-emulsion (w1/o/w2) PLGA microparticles
Compound,"size range of resulting microspheres ([1]; PLGA microspheres (w/o/w), collected on 25 micron sieve)","CL—Coreload (wt % of active in microparticle as isolated) [2, 4] [%]",CL—Coreload (wt % of active in microparticle as isolated) ([2]; Monophase PLGA microparticles) [%],"PS—Mean Particle Size (estimated from SEM) [1, 4]",PS—Mean Particle Size (estimated from SEM) ([1]; Monophase PLGA microparticles),% BGL (glucose normalized to a percentage of basal levels) (normal rats; Time 0 hr) [%],% BGL (glucose normalized to a percentage of basal levels) (normal rats; Time 1 hr) [%],% BGL (glucose normalized to a percentage of basal levels) (normal rats; Time 2 hr) [%],% BGL (glucose normalized to a percentage of basal levels) (normal rats; Time 4 hr) [%],% BGL (glucose normalized to a percentage of basal levels) (normal rats; Time 6 hr) [%],% BGL (glucose normalized to a percentage of basal levels) (normal rats; Time 8 hr) [%],% BGL (glucose normalized to a percentage of basal levels) (normal rats; Time 12 hr) [%],IR—Initial Release at 1 h from in vitro dissolution [3] [%],"EE—Encapsulation Efficiency (% of active encapsulated in process) [2, 4] [%]",EE—Encapsulation Efficiency (% of active encapsulated in process) ([2]; Monophase PLGA microparticles) [%]
pegylated GM-CSF: GM-CSF conjugated to tresyl-monomethoxy-polyethylene glycol (MW=5000 daltons); paper example,25-200 μm,–,–,–,–,–,–,–,–,–,–,–,–,–,–
Insulin: recombinant human insulin; PLGA microparticles of Examples 14 and 16,–,0.23,0.6,100-350 μm,30-100 μm,–,–,–,–,–,–,–,–,–,–
"PEG-Insulin: Human insulin covalently modified with polyethylene glycol, mPEG(5000)-SPA; PLGA microparticles of Examples 15 and 17",–,–,–,50-250 μm,50-100 μm,100,111.1,86.5,97,98.5,82,88.8,–,–,–
C[C@@H](NC(=O)[C@@H](N)Cc1ccc(O)cc1)C(=O)NCC(=O)N[C@@H](Cc1ccccc1)C(=O)NNC(=O)[C@H](Cc1ccccc1)NC(=O)CNC(=O)[C@@H](C)NC(=O)[C@@H](N)Cc1ccc(O)cc1 [Biphalin],–,0.24,0.36,50-250 μm,20-100 μm,–,–,–,–,–,–,–,49.4,14.28,3.64
